The values that follow are results of earlier work, collected in paper PMC6370995, “Phase I study of PF‐04895162, a Kv7 channel opener, reveals unexpected hepatotoxicity in healthy subjects, but not rats or monkeys: clinical evidence of disrupted bile acid homeostasis” (Pharmacology Research & Perspectives, 2019).

In one data set the test system is patients. On the set-up: method as in PMID 27178047. As to conditions: 50 mg once daily, Phase 3 clinical study; cited from earlier work.
The test system of another data set is BSEP. On the set-up: method as in PMID 11309550. As to conditions: cited from earlier work.

As to `Cc1cc(OCCCS(C)(=O)=O)cc(C)c1-c1cccc(COc2ccc3c(c2)OC[C@H]3CC(=O)O)c1` [TAK‐875], the clinical liver finding result with patients is recorded as “clinical hepatotoxicity in a small number of patients”.

On to `COc1ccccc1Oc1c(NS(=O)(=O)c2ccc(C(C)(C)C)cc2)nc(-c2ncccn2)nc1OCCO` [bosentan], for which, in the data set on BSEP, the BSEP inhibition potency is ~ 12 μmol/L.
